According to PMC2949283 (The Biochemical journal, 2009):
Like-named read-outs stand apart in the source and are kept apart here.

How the values were obtained:
Type in all cases: biochemical
W86A HuAChE = W86A HuAChE (Homo sapiens, UniProt P22303, W117A); test: HuAChE inhibition kinetics
F295A HuAChE = F295A HuAChE (Homo sapiens, UniProt P22303, F326A); test: HuAChE inhibition kinetics
Wild Type HuAChE = Wild Type HuAChE (Homo sapiens, UniProt P22303); test: HuAChE inhibition kinetics
F338A HuAChE = F338A HuAChE (Homo sapiens, UniProt P22303, F369A); test: HuAChE inhibition kinetics
Chain of F338A HuAChE (P22303 32-614 F369A): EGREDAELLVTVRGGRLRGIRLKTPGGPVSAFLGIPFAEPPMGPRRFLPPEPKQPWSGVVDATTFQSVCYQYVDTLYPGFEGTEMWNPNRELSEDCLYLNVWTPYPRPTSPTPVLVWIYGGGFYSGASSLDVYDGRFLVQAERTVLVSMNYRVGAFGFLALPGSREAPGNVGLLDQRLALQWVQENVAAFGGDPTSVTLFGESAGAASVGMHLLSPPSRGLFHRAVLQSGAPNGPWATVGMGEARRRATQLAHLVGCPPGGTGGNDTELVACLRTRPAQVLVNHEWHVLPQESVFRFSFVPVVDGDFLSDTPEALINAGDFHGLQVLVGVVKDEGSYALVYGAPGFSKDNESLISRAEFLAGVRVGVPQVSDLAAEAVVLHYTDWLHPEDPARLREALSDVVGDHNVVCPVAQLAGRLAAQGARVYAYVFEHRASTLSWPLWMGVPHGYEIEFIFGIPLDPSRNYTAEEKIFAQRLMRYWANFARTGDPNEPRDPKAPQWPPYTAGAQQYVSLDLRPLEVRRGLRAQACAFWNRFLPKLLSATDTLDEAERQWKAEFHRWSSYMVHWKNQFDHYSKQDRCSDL

F297A HuAChE = F297A HuAChE (Homo sapiens, UniProt P22303, F328A); test: HuAChE inhibition kinetics
Chain of F297A HuAChE (P22303 32-614 F328A): as the sequence (P22303 32-614 F369A) above, with F297A, A338F counted along it

Y133A HuAChE = Y133A HuAChE (Homo sapiens, UniProt P22303, Y164A); test: HuAChE inhibition kinetics; conditions: read-out: Kd, Michaelis complex (Eq. 1); Y133A HuAChE; NI = No inhibition between […]10^−6- […]10^−4M
Chain of Y133A HuAChE (P22303 32-614 Y164A): as the sequence (P22303 32-614 F369A) above, with Y133A, A338F counted along it

F295A/F297A HuAChE = F295A/F297A HuAChE (Homo sapiens, UniProt P22303, F326A/F328A); test: HuAChE inhibition kinetics
Chain of F295A/F297A HuAChE (P22303 32-614 F326A/F328A): as the sequence (P22303 32-614 F369A) above, with F295A, F297A, A338F counted along it

W86A/Y337A HuAChE = W86A/Y337A HuAChE (Homo sapiens, UniProt P22303, W117A/Y368A); test: biochemical
Chain of W86A/Y337A HuAChE (P22303 32-614 W117A/Y368A): as the sequence (P22303 32-614 F369A) above, with W86A, Y337A, A338F counted along it

Y337A HuAChE = Y337A HuAChE (Homo sapiens, UniProt P22303, Y368A); test: HuAChE inhibition kinetics
Chain of Y337A HuAChE (P22303 32-614 Y368A): as the sequence (P22303 32-614 F369A) above, with Y337A, A338F counted along it

HuBChE-Wild Type = HuBChE-Wild Type (Homo sapiens, UniProt P06276); test: HuBChE inhibition kinetics
Chain of HuBChE-Wild Type (P06276 29-602): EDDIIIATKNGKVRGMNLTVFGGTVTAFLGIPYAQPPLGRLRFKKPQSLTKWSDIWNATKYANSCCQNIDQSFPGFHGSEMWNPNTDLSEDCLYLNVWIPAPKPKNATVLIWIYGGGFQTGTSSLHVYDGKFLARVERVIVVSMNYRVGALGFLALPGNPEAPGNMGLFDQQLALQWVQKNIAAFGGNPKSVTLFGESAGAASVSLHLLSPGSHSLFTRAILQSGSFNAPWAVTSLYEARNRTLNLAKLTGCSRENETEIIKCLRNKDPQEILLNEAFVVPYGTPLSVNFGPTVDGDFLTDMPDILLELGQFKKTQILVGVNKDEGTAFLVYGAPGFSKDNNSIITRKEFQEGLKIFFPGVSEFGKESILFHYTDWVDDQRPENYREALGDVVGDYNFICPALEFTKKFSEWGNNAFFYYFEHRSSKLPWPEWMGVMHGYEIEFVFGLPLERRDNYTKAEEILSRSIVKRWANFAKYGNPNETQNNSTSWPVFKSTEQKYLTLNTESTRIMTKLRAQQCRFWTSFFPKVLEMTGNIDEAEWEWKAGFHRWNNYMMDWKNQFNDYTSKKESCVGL

Chain of Wild Type HuAChE (P22303 32-614): as the sequence (P22303 32-614 F369A) above, with A338F counted along it
Chain of W86A HuAChE (P22303 32-614 W117A): as the sequence (P22303 32-614 F369A) above, with W86A, A338F counted along it
Chain of F295A HuAChE (P22303 32-614 F326A): as the sequence (P22303 32-614 F369A) above, with F295A, A338F counted along it

CNC(=O)Oc1ccc2c(c1)[C@]1(C)CCO[C@@H]1N2C [(−)-Physovenine, physovenine]
Kd (W86A HuAChE): 120000 ± 24000 nM
Kd (F295A HuAChE): 100 ± 27 nM
Kd (Wild Type HuAChE): 430 ± 90 nM
Kd (F338A HuAChE): 2560 ± 600 nM
Kd (F297A HuAChE): 630 ± 40 nM
Kd (Y133A HuAChE): > 250000 nM
Kd (F295A/F297A HuAChE; Kd, Michaelis complex (Eq. 1)): 230 ± 70 nM
Kd (W86A/Y337A HuAChE): 413000 ± 85000 nM
Kd (Y337A HuAChE): 850 ± 200 nM

CC(C)c1ccc(NC(=O)Oc2ccc3c(c2)[C@]2(C)CCN(C)[C@@H]2N3C)cc1 [(−)Cymserine, cymserine]
mode of inhibition (Wild Type HuAChE; HuAChE enzymes): noncovalent inhibitor

CCN(C)C(=O)Oc1cccc([C@H](C)N(C)C)c1 [Rivastigmine, rivastigmine]
k2 higher than for HuAChE (HuBChE-Wild Type; HuBChE vs HuAChE): 9 fold
reactivity toward HuBChE higher than toward HuAChE (HuBChE-Wild Type; HuBChE vs HuAChE): 15 fold
k2, carbamylation rate constant (HuBChE-Wild Type; HuBChE-Wild Type): 0.90 ± 0.03 min⁻¹

physovenine [(+)-Physovenine]
Kd (W86A HuAChE; read-out: Kd, Michaelis complex (Eq. 1), W86A HuAChE): 280000 ± 28500 nM
Kd (F295A HuAChE; read-out: Kd, Michaelis complex (Eq. 1), F295A HuAChE): 90 ± 25 nM
Kd (Wild Type HuAChE; read-out: Kd, Michaelis complex (Eq. 1), Wild Type HuAChE): 1400 ± 130 nM
Kd (F338A HuAChE; read-out: Kd, Michaelis complex (Eq. 1), F338A HuAChE): 700 ± 100 nM
Kd (F297A HuAChE; read-out: Kd, Michaelis complex (Eq. 1), F297A HuAChE): 1000 ± 350 nM
Kd (Y133A HuAChE): > 250000 nM
Kd (F295A/F297A HuAChE; read-out: Kd, Michaelis complex (Eq. 1)): 280 ± 80 nM
Kd (W86A/Y337A HuAChE; read-out: Kd, Michaelis complex (Eq. 1), […], Table 3: Activity measured with TB): 281000 ± 45000 nM
Kd (Y337A HuAChE; read-out: Kd, Michaelis complex (Eq. 1), Y337A HuAChE): 15000 ± 1600 nM
